The record followed here is paper PMC11180509 (The Journal of Clinical Endocrinology and Metabolism, 2024).

This data set can be described thus: Plasma concentration of intact GIP after subcutaneous GIP injection. The class given is in vivo, human.

As usually defined, the Tmax is the time from dosing to the highest level. Usually Cmax stands for the highest concentration seen after dosing. Regarding `CC[C@H](C)[C@H](NC(=O)[C@H](CO)NC(=O)[C@H](Cc1ccc(O)cc1)NC(=O)[C@H](CC(=O)O)NC(=O)[C@H](CO)NC(=O)[C@@H](NC(=O)[C@H](Cc1ccccc1)NC(=O)[C@@H](NC(=O)CNC(=O)[C@H](CCC(=O)O)NC(=O)[C@H](C)NC(=O)[C@@H](N)Cc1ccc(O)cc1)[C@@H](C)O)[C@@H](C)CC)C(=O)N[C@@H](C)C(=O)N[C@@H](CCSC)C(=O)N[C@@H](CC(=O)O)C(=O)N[C@@H](CCCCN)C(=O)N[C@H](C(=O)N[C@@H](Cc1c[nH]cn1)C(=O)N[C@@H](CCC(N)=O)C(=O)N[C@@H](CCC(N)=O)C(=O)N[C@@H](CC(=O)O)C(=O)N[C@@H](Cc1ccccc1)C(=O)N[C@H](C(=O)N[C@@H](CC(N)=O)C(=O)N[C@@H](Cc1c[nH]c2ccccc12)C(=O)N[C@@H](CC(C)C)C(=O)N[C@@H](CC(C)C)C(=O)N[C@@H](C)C(=O)N[C@@H](CCC(N)=O)C(=O)N[C@@H](CCCCN)C(=O)NCC(=O)N[C@@H](CCCCN)C(=O)N[C@@H](CCCCN)C(=O)N[C@@H](CC(N)=O)C(=O)N[C@@H](CC(=O)O)C(=O)N[C@@H](Cc1c[nH]c2ccccc12)C(=O)N[C@@H](CCCCN)C(=O)N[C@@H](Cc1c[nH]cn1)C(=O)N[C@@H](CC(N)=O)C(=O)N[C@H](C(=O)N[C@H](C(=O)N[C@@H](CCC(N)=O)C(=O)O)[C@@H](C)O)[C@@H](C)CC)C(C)C)[C@@H](C)CC` [GIP, Human GIP(1-42)], the “Time until plasma intact GIP returned to basal level” value (fasting men with T2D, n = 10, 200 µg GIP subcutaneous bolus) is listed as “about 150 minutes”. In addition, where the note is “male, human, plasma, sc, 200 ug”, the Tmax was 30 min. For the same compound, the Cmax (male, human, plasma, sc, 200 ug, SEM) came to 0.055 ± 0.0058 nM.
